{"source": "patent US20230158071A1", "about": "“TUMOR COMBINED IMMUNOTHERAPY” (CRAGE medical Co., Limited, priority 2018, published 2023)", "format_in_all_cases": "cell-based, mouse", "key": {"[1]": {"test_system": "cytokines Granzyme B, IFN-γ, and IL-2", "assay": "ELISA of cytokines in supernatant of co-cultured 4T1-EGFRvIII cells and CAR-T cells", "settings": "4T1-EGFRvIII co-culture with CAR-T cells, olaparib groups", "description": "(§1) Olaparib pretreatment group: different concentrations of olaparib (1 μM, 5 μM) are added to the medium for culturing E0771-EGFRVIII or 4T1-EGFRvIII tumor cells respectively, culturing at 37° C. for 24 h, and then the cells are treated with trypsin and resuspended in fresh medium. The untreated mouse T cells and 806-mCD28z-CAR T cells in Example 1 are respectively taken to incubate with E0771-EGFRvIII or 4T1-EGFRVIII cells pretreated with different concentrations of olaparib at a ratio of 1:3, 1:1, and 3:1; 16 hours later, the secretion of LDH in the supernatant is detected by Cytox 96 Non-Radioactive Cytotoxicity Assay, then calculating the killing toxicity of 806-mCD28z CAR T cells to tumor cells pretreated with different concentrations of olaparib. For specific detection steps and calculation methods, see the instructions of Promaga. Cytox 96 Non-Radioactive Cytotoxicity Assay (Promaga, REF: G1782); at the same time, the secretions of cytokines Granzyme B, IFN-γ, and IL-2 in the supernatant are detected by ELISA kit (Lianke Biotech Co. Ltd. CAT: 18^.22), for specific experimental procedures, referring to instructions of MouseGranzyme B, IFN-γ, IL-2 ELISA kit from Lianke Biotech Co, Ltd. […]"}, "4T1-EGFRvIII cells": {"test_system": "4T1-EGFRvIII cells", "assay": "LDH cytotoxicity assay, CAR-T killing of olaparib-treated 4T1-EGFRvIII cells", "description": "The experimental groups for incubating with cells that are positive for the antigen target comprises the following 4 groups: UTD group, 806-mCD28z-CAR-T group (or denoted as 806-28Z), olaparib pretreatment group, and olaparib combined treatment group;\nthe olaparib pretreatment group comprises: UTD+1 μM olaparib pretreatment group (or denoted as UTD+Olaparib 1 μM pretreatment), UTD+5 μM olaparib pretreatment group (or denoted as UTD+Olaparib 5 μM pretreatment), 806-mCD28z-CAR-T+1 μM olaparib pretreatment group (or denoted as 806-28Z+Olaparib 1 μM pretreatment). 806-mCD28z-CAR-T+5 μM olaparib pretreatment group (or denoted as 806-28Z+Olaparib 5 μM pretreatment); […]\nas §1, with “For specific detection steps and calculation methods, see the instructions of Promaga.” left out"}, "806-mCD28z-CAR-T cells": {"test_system": "806-mCD28z-CAR-T cells", "assay": "CCK8 proliferation assay, olaparib on CAR-T cells", "description": "As an effective inhibitor of PARP1, olaparib may inhibit PARP1 to participate in DNA damage repair process. In mouse breast cancer cell lines and mouse T cells and CART cells, different levels of PARP1 expression are detected (FIG. 2B). Therefore, CCK8 proliferation assay is required to detect the effect of olaparib on proliferation of tumor cells and CART cells.\n806-m28Z CAR-T cells in Example 1 are taken to spread in a 96-well plate with 1×10^4 cells per well and 100 μl medium. Breast cancer cells E0771-EGFRvIII and 4T1-EGFRvIII are taken to spread in a 96-well plate with 1×10^4 cells per well and 100 μl medium. Different concentrations of olaparib are taken to add to the cells to make 10 concentration gradients (i.e., the treatment concentrations of olaparib are respectively 50 μM, 20 μM, 10 μM, 5 μM, 2.5 μM, 1 μM, 0.1 μM, 0.01 μM, 0.001 μM, 0 μg/ml). After 48 hours of drug treatment for cells of different groups, 10 μl of CCK8 substrate color reagent (Dojindo) is added to each well; after incubating for 1 hour at 37° C., the absorbance at 450 nm is measured by a microplate reader, calculating the cell viability respectively.\nThe formula for calculating the cell viability is as follows:\nCell viability (%)=[A (adding drug)−A (blank)]/[A (without adding drug)−A (blank)]"}}, "data": [{"smiles": "O=C(c1cc(Cc2n[nH]c(=O)c3ccccc23)ccc1F)N1CCN(C(=O)C2CC2)CC1", "note": "[olaparib]", "values": [{"measurement": "level of cytokine in the supernatant", "setting": "[1]", "result": "not increased"}, {"measurement": "lethal effect on 4T1-EGFRvIII cells compared with the CAR-T single treatment group", "setting": "4T1-EGFRvIII cells; 5 μM olaparib combined treatment group", "result": "higher synergistic lethal effect"}, {"measurement": "promotion of the killing effect of CAR-T cells on 4T1-EGFRvIII cells", "setting": "4T1-EGFRvIII cells; 5 μM olaparib pretreatment group, better than 5 μM combined treatment group", "result": "most significant"}, {"measurement": "killing effect of CAR-T cells on 4T1-EGFRvIII cells", "setting": "4T1-EGFRvIII cells; olaparib 1 μM or 5 μM, pretreatment or combined treatment, vs CAR-T alone, ratio 1:3, 1:1, 3:1, 16 hours, LDH", "result": "significantly improved"}, {"measurement": "proliferation of 806-mCD28z-CAR-T cells", "setting": "806-mCD28z-CAR-T cells; 1 μM olaparib", "result": "not affected"}, {"measurement": "inhibition rate of proliferation of 806-mCD28z-CAR-T cells", "setting": "806-mCD28z-CAR-T cells; 2.5 μM and higher concentration of olaparib, 48 hours, CCK8", "result": "~80", "unit": "%"}, {"measurement": "concentration that may inhibit the growth of CAR-T cells", "setting": "806-mCD28z-CAR-T cells; in vitro", "result": "higher than 2.5 μM"}, {"measurement": "proliferation of 806-mCD28z-CAR-T cells", "setting": "806-mCD28z-CAR-T cells; olaparib", "result": "inhibited"}]}]}
